Measured values taken from patent US11053248B2, “[1,2,4]triazolo[1,5-a]pyrimidine compounds as PDE2 inhibitors” (Janssen Pharmaceutica NV, priority 2016, dated 2021).

Target: T1, PDE2A (Rattus norvegicus, UniProt Q01062)
T1 construct: from tissue; host or cells: rat brain striatal sections (ex vivo)
T1 sequence (Q01062 1-928): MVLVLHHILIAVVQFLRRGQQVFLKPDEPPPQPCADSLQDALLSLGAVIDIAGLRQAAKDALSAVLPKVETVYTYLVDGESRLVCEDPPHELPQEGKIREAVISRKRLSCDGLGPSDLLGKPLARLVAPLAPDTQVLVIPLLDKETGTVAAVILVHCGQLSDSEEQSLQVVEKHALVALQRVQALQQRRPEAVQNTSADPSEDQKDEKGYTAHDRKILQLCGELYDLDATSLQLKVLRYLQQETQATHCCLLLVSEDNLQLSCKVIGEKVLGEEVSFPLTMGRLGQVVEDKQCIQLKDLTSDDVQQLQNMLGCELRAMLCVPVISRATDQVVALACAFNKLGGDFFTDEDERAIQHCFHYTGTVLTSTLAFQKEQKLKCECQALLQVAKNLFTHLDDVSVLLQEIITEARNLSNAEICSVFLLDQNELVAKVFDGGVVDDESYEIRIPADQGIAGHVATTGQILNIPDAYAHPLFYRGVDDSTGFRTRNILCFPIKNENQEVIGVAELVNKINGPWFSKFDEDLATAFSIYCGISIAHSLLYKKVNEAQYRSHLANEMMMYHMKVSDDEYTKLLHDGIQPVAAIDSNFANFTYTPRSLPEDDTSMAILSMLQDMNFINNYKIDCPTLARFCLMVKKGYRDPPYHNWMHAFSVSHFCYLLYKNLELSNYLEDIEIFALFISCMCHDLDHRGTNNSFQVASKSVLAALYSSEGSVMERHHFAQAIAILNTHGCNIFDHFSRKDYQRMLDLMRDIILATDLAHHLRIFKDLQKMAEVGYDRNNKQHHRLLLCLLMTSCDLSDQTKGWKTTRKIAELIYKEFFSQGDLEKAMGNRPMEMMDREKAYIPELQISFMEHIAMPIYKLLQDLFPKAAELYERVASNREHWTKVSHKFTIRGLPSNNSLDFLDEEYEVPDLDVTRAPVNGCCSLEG
Test: PDE2 occupancy by ex-vivo autoradiography with [3H]B-17a
Type: in vivo
Conditions: rat

## C[C@@H]1CCN(c2nccc3ccc(Br)cc23)C[C@H]1c1cc(C(F)F)nc2ncnn12 [Compound 1]
po, read-out: PDE2 occupancy at 10 mg/kg, route PO (oral), 10 mg/kg, male Wistar rats, striatum, percentage occupancy
  receptor occupancy at 10 mg/kg: 94%
sc, read-out: PDE occupancy ED50, route SC (subcutaneous), male Wistar rats, dose producing 50% occupancy
  ED50: 6.7 mg/kg
